Laboratory results: patent US20250144020A1, “ULTRA-LONG FLOATING HYDROGEL RAFT FOR PROLONGED GASTRIC RETENTION AND APPLICATIONS REQUIRING BUOYANCY WITH CONTROLLED-RELEASE” (Nanyang Technological University, priority 2022, published 2025)
Counter-ions that a name gives are not always drawn.

Columns and labels:
[1] = cited from earlier work
[2] = In vitro release of MT in FaSGF with model fitting; format: physicochemical; details: 37° C., 150 rpm
Procedure: Receptacle cap type rafts were used for the release studies as the receptacle allows the loading of the FD, MP, and FM. The receptacle cap assembly also ensures that the system can be adopted for other drugs easily. This design was used to prevent the interaction of drugs with water in the hydrogel. 100 mg of free drug MT was weighed in triplicates and added to the receptacle of the raft before closing the lid to complete the assembly. Similarly, 20 mg of the MPs (prepared in Example 7) or one FM (prepared in Example 8) was weighed in replicates and added to the receptacle of the raft and closed with cap to obtain the raft containing MT in different forms. Drug forms that were not encased in the raft served as controls.
Required amounts of FD, MP, or FM were added to the receptacle of the raft, and the cap was used to close the structure to obtain FD encased in raft (FD-R), MP encased in raft (MP-R), and FM encased in raft (FM-R). This raft assembly was then tested under simulated gastric conditions using FaSGF in a shaking incubator (150 rpm) at 37° C. All experiments were carried out in triplicates. […] The collected samples were analyzed for the drugs using HPLC. For MT, acetonitrile:PBS (60:40) (PBS adjusted to pH 4.7) was used as the mobile phase at a flow rate of 0.8 ml/min and detected at 244 nm. […]

[3] = In vitro release of Ris in FaSGF with model fitting; format: physicochemical; details: not encased in raft
Procedure: This raft assembly was then tested under simulated gastric conditions using FaSGF in a shaking incubator (150 rpm) at 37° C. All experiments were carried out in triplicates. At specified time points, the release media were collected and replaced with an equal volume of fresh FaSGF. The collected samples were analyzed for the drugs using HPLC. […] Each drug form, without the raft, served as a control. To elucidate the mechanism of drug release, the release data were fitted to mathematical models.
Four different forms of the drug were used: 1. free drug; 2. commercial tablet; 3. drug encapsulated MPs; and 4. drug encapsulated FMes. […] Each drug form, without the raft, served as a control.
Receptacle cap type rafts were used for the release studies as the receptacle allows the loading of the FD, MP, and FM. […] Drug forms that were not encased in the raft served as controls.

time of MT release (sustained over / dissolved completely in), in words [2]	Structure (SMILES)	water solubility (in words) [1]	time to complete dissolution, uncased [3]
one hour	COCCc1ccc(OCC(O)CNC(C)C)cc1 (stereo not shown) [MT, metoprolol tartrate]	water-soluble	
	Cc1nc2n(c(=O)c1CCN1CCC(c3noc4cc(F)ccc34)CC1)CCCC2 [Ris, Risperidone]	insoluble in water	1 h
